{"source": "paper PMC4197230", "about": "“Terpene synthases and their contribution to herbivore-induced volatile emission in western balsam poplar (Populus trichocarpa)” (BMC Plant Biology, 2014)", "format_in_all_cases": "biochemical", "key": {"[1]": {"molecular_target": "T1, PtTPS12 (Populus trichocarpa, UniProt A0A076GAU9)", "T1 construct": "gene TPS12; N-terminally truncated (first 126 nt deleted, predicted plastid transit peptide), pASK-IBA7, E. coli TOP10, desalted bacterial extract", "T1 sequence (A0A076GAU9 entry or part of it)": "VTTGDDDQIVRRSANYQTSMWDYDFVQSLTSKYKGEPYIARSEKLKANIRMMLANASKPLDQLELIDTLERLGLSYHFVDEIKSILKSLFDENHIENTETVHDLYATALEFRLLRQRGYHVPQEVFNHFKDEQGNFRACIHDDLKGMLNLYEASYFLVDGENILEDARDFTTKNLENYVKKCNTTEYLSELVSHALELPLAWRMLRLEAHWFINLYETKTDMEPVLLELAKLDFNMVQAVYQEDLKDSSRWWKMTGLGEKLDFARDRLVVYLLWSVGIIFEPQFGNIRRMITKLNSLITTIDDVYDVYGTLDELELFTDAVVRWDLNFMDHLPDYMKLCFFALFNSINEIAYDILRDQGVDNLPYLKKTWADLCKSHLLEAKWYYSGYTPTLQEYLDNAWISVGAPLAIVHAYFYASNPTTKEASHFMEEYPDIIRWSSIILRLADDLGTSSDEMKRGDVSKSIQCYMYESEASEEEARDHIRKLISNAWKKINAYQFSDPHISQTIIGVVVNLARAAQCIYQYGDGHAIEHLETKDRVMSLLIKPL", "assay": "SPME GC-MS product analysis, bacterial extract", "conditions": "10 mM MgCl2, pH 7.0, 30 C, desalted E. coli extract, empty-vector control"}, "[2]": {"molecular_target": "T2, PtTPS14 (Populus trichocarpa, UniProt A0A076GBU1)", "T2 construct": "gene TPS14; full ORF in pASK-IBA7 (vector tag, if any, not described), E. coli TOP10, desalted bacterial extract", "T2 sequence (A0A076GBU1 1-560)": "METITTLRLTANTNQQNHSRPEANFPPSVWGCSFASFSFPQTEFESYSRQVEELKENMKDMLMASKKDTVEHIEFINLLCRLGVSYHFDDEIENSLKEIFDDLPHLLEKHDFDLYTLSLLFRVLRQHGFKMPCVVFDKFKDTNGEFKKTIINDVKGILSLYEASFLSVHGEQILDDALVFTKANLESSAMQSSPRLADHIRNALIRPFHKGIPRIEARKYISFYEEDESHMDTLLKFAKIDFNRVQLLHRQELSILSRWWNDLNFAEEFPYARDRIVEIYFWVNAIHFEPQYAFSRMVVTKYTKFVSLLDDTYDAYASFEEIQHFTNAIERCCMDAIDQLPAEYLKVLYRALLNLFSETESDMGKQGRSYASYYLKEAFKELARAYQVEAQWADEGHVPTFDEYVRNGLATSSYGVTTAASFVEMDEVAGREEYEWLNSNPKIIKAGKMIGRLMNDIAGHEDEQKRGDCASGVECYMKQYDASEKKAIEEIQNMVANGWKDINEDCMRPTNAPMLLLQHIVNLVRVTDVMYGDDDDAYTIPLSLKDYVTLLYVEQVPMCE", "assay": "SPME GC-MS product analysis, bacterial extract", "conditions": "10 uM FPP, 10 mM MgCl2, pH 7.0, 30 C; desalted E. coli extract, empty-vector control; marginal activity"}, "[3]": {"molecular_target": "T3, PtTPS15 (Populus trichocarpa, UniProt A0A076GBT1)", "T3 construct": "gene TPS15; full ORF in pASK-IBA7 (vector tag, if any, not described), E. coli TOP10, desalted bacterial extract", "T3 sequence (A0A076GBT1 1-528)": "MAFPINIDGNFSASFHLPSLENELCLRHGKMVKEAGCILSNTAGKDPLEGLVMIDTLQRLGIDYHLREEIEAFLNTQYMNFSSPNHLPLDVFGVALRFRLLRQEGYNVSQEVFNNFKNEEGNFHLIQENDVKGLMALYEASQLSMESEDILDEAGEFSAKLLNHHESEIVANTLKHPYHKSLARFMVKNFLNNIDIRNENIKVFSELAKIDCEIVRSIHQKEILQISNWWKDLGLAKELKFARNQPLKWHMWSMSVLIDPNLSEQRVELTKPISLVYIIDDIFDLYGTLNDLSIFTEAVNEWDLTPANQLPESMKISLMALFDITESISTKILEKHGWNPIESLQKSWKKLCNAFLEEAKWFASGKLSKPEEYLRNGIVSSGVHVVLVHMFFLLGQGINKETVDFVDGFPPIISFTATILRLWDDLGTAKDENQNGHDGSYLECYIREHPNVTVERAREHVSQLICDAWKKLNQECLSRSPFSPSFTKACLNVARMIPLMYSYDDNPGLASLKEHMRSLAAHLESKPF", "assay": "SPME GC-MS product analysis, bacterial extract", "conditions": "10 mM MgCl2, pH 7.0, 30 C, desalted E. coli extract, empty-vector control"}, "[4]": {"molecular_target": "T4, PtTPS9 (Populus trichocarpa, UniProt A0A076GBT5)", "T4 construct": "gene TPS9; full ORF in pASK-IBA7 (vector tag, if any, not described), E. coli TOP10, desalted bacterial extract", "T4 sequence (A0A076GBT5 1-569)": "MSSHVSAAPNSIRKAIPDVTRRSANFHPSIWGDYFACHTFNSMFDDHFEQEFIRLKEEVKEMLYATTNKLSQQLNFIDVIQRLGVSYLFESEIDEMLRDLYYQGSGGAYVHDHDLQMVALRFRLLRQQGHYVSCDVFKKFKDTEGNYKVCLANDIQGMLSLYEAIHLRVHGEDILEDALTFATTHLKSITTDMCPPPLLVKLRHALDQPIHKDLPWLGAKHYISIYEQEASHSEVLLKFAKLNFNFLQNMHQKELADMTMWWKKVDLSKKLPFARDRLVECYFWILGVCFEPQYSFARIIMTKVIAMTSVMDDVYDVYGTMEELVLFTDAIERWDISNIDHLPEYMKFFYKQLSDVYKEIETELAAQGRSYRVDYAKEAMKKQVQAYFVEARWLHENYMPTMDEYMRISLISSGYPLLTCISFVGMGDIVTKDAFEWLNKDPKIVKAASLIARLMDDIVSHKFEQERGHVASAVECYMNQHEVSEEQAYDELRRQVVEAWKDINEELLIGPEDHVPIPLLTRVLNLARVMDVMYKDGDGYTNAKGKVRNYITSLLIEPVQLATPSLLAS", "assay": "SPME GC-MS product analysis, bacterial extract", "conditions": "10 uM FPP, 10 mM MgCl2, pH 7.0, 30 C; desalted E. coli extract, empty-vector control"}, "[5]": {"molecular_target": "T5, PtTPS11 (Populus trichocarpa, UniProt A0A076GAR6)", "T5 construct": "gene TPS11; full ORF in pASK-IBA7 (vector tag, if any, not described), E. coli TOP10, desalted bacterial extract", "T5 sequence (A0A076GAR6 1-551)": "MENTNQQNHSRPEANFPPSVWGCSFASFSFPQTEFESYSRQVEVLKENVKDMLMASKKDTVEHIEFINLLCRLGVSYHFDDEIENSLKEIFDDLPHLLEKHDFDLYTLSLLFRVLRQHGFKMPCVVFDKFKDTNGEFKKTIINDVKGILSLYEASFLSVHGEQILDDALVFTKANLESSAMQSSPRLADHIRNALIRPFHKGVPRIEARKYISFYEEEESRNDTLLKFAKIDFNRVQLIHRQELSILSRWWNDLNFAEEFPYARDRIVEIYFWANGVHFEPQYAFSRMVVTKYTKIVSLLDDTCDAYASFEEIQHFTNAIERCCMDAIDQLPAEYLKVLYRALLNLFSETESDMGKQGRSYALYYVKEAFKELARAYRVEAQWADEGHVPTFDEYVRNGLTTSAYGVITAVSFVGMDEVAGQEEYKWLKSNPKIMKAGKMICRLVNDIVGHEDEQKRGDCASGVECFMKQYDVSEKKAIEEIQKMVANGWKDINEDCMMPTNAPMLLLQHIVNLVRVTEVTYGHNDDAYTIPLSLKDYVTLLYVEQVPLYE", "assay": "SPME GC-MS product analysis, bacterial extract", "conditions": "10 uM GPP, 10 mM MgCl2, pH 7.0, 30 C; desalted E. coli extract, empty-vector control"}, "[6]": {"molecular_target": "T6, PtTPS6 (Populus trichocarpa, UniProt A0A076GAR5)", "T6 construct": "gene TPS6; N-terminally truncated (first 57 nt deleted, predicted plastid transit peptide), pASK-IBA7, E. coli TOP10, desalted bacterial extract", "T6 sequence (A0A076GAR5 entry or part of it)": "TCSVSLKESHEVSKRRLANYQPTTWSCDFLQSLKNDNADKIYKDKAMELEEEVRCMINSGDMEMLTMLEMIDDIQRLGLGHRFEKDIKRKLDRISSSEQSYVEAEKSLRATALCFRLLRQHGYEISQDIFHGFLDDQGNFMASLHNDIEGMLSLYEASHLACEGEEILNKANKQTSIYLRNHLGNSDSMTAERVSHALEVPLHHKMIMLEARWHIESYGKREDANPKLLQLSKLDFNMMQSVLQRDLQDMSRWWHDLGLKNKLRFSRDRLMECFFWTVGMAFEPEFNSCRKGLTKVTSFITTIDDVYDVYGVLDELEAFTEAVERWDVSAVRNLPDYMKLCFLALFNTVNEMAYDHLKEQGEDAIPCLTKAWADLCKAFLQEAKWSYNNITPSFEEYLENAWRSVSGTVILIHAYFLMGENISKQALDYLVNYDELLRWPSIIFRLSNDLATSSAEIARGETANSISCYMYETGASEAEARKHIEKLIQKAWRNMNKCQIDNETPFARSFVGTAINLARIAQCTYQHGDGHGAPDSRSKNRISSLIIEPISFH", "assay": "SPME GC-MS product analysis, bacterial extract", "conditions": "10 uM GPP, 10 mM MgCl2, pH 7.0, 30 C; desalted E. coli extract, empty-vector control"}, "[7]": {"molecular_target": "T7, PtTPS10 (Populus trichocarpa, UniProt A0A076GH23)", "T7 construct": "gene TPS10; full ORF in pASK-IBA7 (vector tag, if any, not described), E. coli TOP10, desalted bacterial extract", "T7 sequence (A0A076GH23 1-836)": "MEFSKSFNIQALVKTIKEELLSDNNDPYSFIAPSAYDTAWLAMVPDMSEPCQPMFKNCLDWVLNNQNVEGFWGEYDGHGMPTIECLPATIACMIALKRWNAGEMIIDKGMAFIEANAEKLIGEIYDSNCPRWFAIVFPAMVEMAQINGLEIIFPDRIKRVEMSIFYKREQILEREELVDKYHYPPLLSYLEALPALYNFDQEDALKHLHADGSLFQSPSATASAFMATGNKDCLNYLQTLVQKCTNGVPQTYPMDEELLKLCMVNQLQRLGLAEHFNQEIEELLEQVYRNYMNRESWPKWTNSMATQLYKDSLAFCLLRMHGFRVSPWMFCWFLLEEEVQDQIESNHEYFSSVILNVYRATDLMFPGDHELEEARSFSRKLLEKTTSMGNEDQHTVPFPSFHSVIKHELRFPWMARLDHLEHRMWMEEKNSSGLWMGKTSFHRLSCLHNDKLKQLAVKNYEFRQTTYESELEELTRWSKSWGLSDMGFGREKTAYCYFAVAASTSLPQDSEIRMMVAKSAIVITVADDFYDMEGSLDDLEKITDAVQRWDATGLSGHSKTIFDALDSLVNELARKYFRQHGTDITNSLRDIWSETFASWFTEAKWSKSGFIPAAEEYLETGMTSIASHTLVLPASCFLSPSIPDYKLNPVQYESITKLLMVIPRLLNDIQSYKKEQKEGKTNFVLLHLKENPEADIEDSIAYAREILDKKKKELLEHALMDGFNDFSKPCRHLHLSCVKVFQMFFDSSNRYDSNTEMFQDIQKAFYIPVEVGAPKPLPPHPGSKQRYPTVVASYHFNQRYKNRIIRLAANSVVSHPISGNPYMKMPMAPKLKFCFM", "assay": "hexane overlay GC-MS product analysis, bacterial extract", "conditions": "50 uM GGPP, 10 mM MgCl2, pH 7.0, 30 C, 60 min; desalted E. coli extract, empty-vector control"}}}
{"smiles": "CC(C)=CCC/C(C)=C/CC/C(C)=C/COP(=O)(O)OP(=O)(O)O", "note": "[FPP]", "values": [{"measurement": "SPME GC-MS product analysis, bacterial extract", "setting": "[1]; 10 uM FPP", "result": "PtTPS12 showed a broad sesquiterpene product spectrum"}, {"measurement": "SPME GC-MS product analysis, bacterial extract", "setting": "[2]", "result": "PtTPS14 showed only marginal activity with FPP and produced trace amounts of germacrene D"}, {"measurement": "SPME GC-MS product analysis, bacterial extract", "setting": "[3]; 10 uM FPP", "result": "PtTPS15 was able to convert FPP to nerolidol"}, {"measurement": "SPME GC-MS product analysis, bacterial extract", "setting": "[4]", "result": "PtTPS9 produced (E)-β-caryophyllene and smaller amounts of α-humulene"}]}
{"smiles": "CC(C)=CCC/C(C)=C/COP(=O)(O)OP(=O)(O)O", "note": "[GPP]", "values": [{"measurement": "SPME GC-MS product analysis, bacterial extract", "setting": "[1]; 10 uM GPP", "result": "PtTPS12 which formed linalool and trace amounts of β-phellandrene"}, {"measurement": "SPME GC-MS product analysis, bacterial extract", "setting": "[5]", "result": "When offered GPP as a substrate, PtTPS11 formed several monoterpenes"}, {"measurement": "SPME GC-MS product analysis, bacterial extract", "setting": "[6]", "result": "(PtTPS6, PtTPS12, PtTPS13 and PtTPS15) accepted GPP as substrate and produced monoterpenes"}, {"measurement": "SPME GC-MS product analysis, bacterial extract", "setting": "[3]; 10 uM GPP", "result": "PtTPS15, which produced only linalool"}]}
{"smiles": "CC(C)=CCC/C(C)=C/CC/C(C)=C/CC/C(C)=C/COP(=O)(O)OP(=O)(O)O", "note": "[GGPP]", "values": [{"measurement": "hexane overlay GC-MS product analysis, bacterial extract", "setting": "[7]", "result": "PtTPS10 represented a DTS and was able to convert GGPP into geranyllinalool"}]}
